Here are results for 25 compounds from patent US7250442B2, “Dihydroindol-2-one derivatives as steroid hormone nuclear receptor modulators” (Eli Lilly and Company, priority 2003, dated 2007).

Structures are written as SMILES.

The assay deals with T1, glucocorticoid receptor (Homo sapiens, UniProt P04150).
T1 construct: host or cells: A549 human lung epithelial cells (sonicated cell extract)
T1 sequence (P04150 1-777): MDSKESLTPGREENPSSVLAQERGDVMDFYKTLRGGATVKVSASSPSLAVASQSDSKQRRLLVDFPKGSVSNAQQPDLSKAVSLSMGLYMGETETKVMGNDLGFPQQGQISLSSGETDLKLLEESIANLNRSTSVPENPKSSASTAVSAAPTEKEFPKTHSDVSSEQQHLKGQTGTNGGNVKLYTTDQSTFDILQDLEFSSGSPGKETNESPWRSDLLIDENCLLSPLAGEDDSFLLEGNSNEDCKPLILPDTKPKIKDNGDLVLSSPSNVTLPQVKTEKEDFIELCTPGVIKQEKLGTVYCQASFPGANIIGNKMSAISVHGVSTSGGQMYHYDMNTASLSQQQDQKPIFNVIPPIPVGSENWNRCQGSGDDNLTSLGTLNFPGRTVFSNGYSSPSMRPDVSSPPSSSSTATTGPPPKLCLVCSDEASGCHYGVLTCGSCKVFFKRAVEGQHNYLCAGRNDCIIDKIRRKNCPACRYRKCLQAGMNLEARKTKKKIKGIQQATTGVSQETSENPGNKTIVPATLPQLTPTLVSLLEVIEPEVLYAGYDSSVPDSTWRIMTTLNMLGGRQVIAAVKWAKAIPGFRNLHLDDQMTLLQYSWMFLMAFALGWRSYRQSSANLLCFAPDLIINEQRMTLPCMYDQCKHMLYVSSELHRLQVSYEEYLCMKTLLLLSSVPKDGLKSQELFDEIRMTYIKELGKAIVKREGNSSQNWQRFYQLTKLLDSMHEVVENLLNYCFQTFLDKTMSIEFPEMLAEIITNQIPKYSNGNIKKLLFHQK
Nature of the assay: Glucocorticoid Receptor Binding Assay ([3H]-dexamethasone displacement, A549 cell extract). To be noted: A549 human lung epithelial cell extract, 1.86 nM [3H]-dexamethasone; read-out: GR Ki. As to the method: Glucocorticoid Receptor Binding Assay:
A549 human lung epithelial cells (ATCC) are grown at a scale where gram quantity cell pellets are obtained. Harvested cell pellets are washed twice in cold phosphate buffered saline, centrifuged, and resuspended in cold assay binding buffer. The assay binding buffer consists of 10% glycerol, 50 mM Tris-HCl (pH7.2), 75 mM sodium chloride, 1.5 mM magnesium chloride, 1.5 mM EDTA, and 10 mM sodium molybdate. Cell suspensions were lysed via sonication, centrifuged, and the “extract” supernatant is snap frozen and stored at −80C. until needed.
GR binding assays are performed in a final volume of 140 ul containing 50-200 ug of A549 cell extract and 1.86 nM [^3H]-dexamethasone (Amersham) plus varying concentrations of test compound or vehicle. Briefly, assays are prepared at RT in 96-well Fisher 3356 plates, each well containing 100 ul of A549 cell extract, 20 ul of [^3H]-dexamethasone, and 20 ul of test compound/vehicle. Incubations are carried out at 4 degrees celsius for 16 hours. After incubation, 70 ul of 3× dextran-coated charcoal solution is added to each reaction, mixed, and incubated for 8 minutes at RT. 3×-dextran-coated charcoal solution consists of 250 ml assay binding buffer, 3.75 g Norit A charcoal (Sigma), and 1.25 g dextran T-70 (Amersham). Charcoal/unbound radioligand complexes are removed by centrifugation of the plate and 140 ul of supernatant from each well is transferred to another 96 well Optiplate (Packard Instruments). 200 ul of Microscint-20 scinillant (Packard Instruments) is added to each well and amount of receptor bound radioligand is determined using Packard Instruments TopCount instrument.
IC50 values, defined as the concentration of test compound required to decrease [^3H]-dexamethasone binding by 50%, are then determined. Ki values for each respective test compound can then be calculated by application of the Cheng-Prusoff equation as described in Cheng et al., Relationship Between The Inhibition Constant (Ki) and The Concentration of Inhibitor Which Causes 50% Inhibition (IC50) of an Enzymatic Reaction, Biochem. Pharmacol., 22: 3099-31088; (1973).
As a reminder, the Ki is the equilibrium dissociation constant of an inhibitor or competing ligand from its target. Regarding `CCOc1cccc(N2C(=O)C(c3cc(C)c(O)c(C)c3)(c3cc(C)c(O)c(C)c3)c3ccccc32)c1` [Example 137, 1-(3-Ethoxy-phenyl)-3,3-bis-(4-hydroxy-3,5-dimethyl-phenyl)-1,3-dihydro-indol-2-one], the inhibition constant Ki is not above 500 nM.
Regarding `Cc1cc(C2(c3cc(C)c(O)c(C)c3)C(=O)N(Cc3c(F)cccc3F)c3ccccc32)cc(C)c1O` [Example 115, 1-(2,6-Difluoro-benzyl)-3,3-bis-(4-hydroxy-3,5-dimethyl-phenyl)-1,3-dihydro-indol-2-one], the inhibitory constant (Ki) is not above 500 nM.
Then `Cc1cc(C2(c3cc(C)c(O)c(C)c3)C(=O)N(Cc3noc(-c4ccco4)n3)c3ccccc32)cc(C)c1O` [Example 87, 1-(5-Furan-2-yl-[1,2,4]oxadiazol-3-ylmethyl)-3,3-bis-(4-hydroxy-3,5-dimethyl-phenyl)-1,3-dihydro-indol-2-one], with not above 500 nM; and `C=C(C)CN1C(=O)C(c2cc(C)c(O)c(C)c2)(c2cc(C)c(O)c(C)c2)c2ccccc21` [Example 106, 3,3-Bis-(4-hydroxy-3,5-dimethyl-phenyl)-1-(2-methyl-allyl)-1,3-dihydro-indol-2-one], with not above 500 nM; and `COc1ccc(CN2C(=O)C(c3cc(C)c(O)c(C)c3)(c3cc(C)c(O)c(C)c3)c3ccccc32)cc1` [Example 1, 3,3-Bis-(4-hydroxy-3,5-dimethyl-phenyl)-1-(4-methoxy-benzyl)-1,3-dihydro-indol-2-one], with not above 500 nM.
On to `Cc1cc(C2(c3ccc(O)cc3)C(=O)N(Cc3ccccc3Cl)c3ccccc32)cc(C)c1O` (stereo not shown) [Example 36, 1-(2-Chloro-benzyl)-3-(4-hydroxy-3,5-dimethyl-phenyl)-3-(4-hydroxy-phenyl)-1,3-dihydro-indol-2-one], for which the Ki was not above 500 nM.
With `Cc1cc(C2(c3cc(C)c(O)c(C)c3)C(=O)N(Cc3ccc(-c4csnn4)cc3)c3ccccc32)cc(C)c1O` [Example 84, 3,3-Bis-(4-hydroxy-3,5-dimethyl-phenyl)-1-(4-[1,2,3]thiadiazol-4-yl-benzyl)-1,3-dihydro-indol-2-one] the figure was not above 500 nM.
With `CCOC(=O)CN1C(=O)C(c2cc(C)c(O)c(C)c2)(c2cc(C)c(O)c(C)c2)c2ccccc21` [Example 109, [3,3-Bis-(4-hydroxy-3,5-dimethyl-phenyl)-2-oxo-2,3-dihydro-indol-1-yl]-acetic acid ethyl ester] the figure was not above 500 nM.
In the case of `Cc1cc(C2(c3cc(C)c(O)c(C)c3)C(=O)N(C)c3ccccc32)cc(C)c1O` [Example 4, 3,3-Bis-(4-hydroxy-3,5-dimethyl-phenyl)-1-methyl-1,3-dihydro-indol-2-one], the Ki is not above 500 nM.
With `Cc1cc(C2(c3cc(C)c(O)c(C)c3)C(=O)N(Cc3ccccc3-c3ccccc3)c3ccccc32)cc(C)c1O` [Example 54, 1-Biphenyl-2-ylmethyl-3,3-bis-(4-hydroxy-3,5-dimethyl-phenyl)-1,3-dihydro-indol-2-one] the figure was not above 1000 nM; with `COC(=O)c1ccc(CN2C(=O)C(c3cc(C)c(O)c(C)c3)(c3cc(C)c(O)c(C)c3)c3ccccc32)o1` [Example 108, 5-[3,3-Bis-(4-hydroxy-3,5-dimethyl-phenyl)-2-oxo-2,3-dihydro-indol-1-ylmethyl]-furan-2-carboxylic acid methyl ester], not above 500 nM; with `Cc1ccc2c(c1)C(c1cc(C)c(O)c(C)c1)(c1cc(C)c(O)c(C)c1)C(=O)N2Cc1csc(-c2ccccc2)n1` [Example 92, 3,3-Bis-(4-hydroxy-3,5-dimethyl-phenyl)-5-methyl-1-(2-phenyl-thiazol-4-ylmethyl)-1,3-dihydro-indol-2-one], not above 500 nM.
Then `Cc1cc(C2(c3cc(C)c(O)c(C)c3)C(=O)N(Cc3ccccc3[N+](=O)[O-])c3ccccc32)cc(C)c1O` [Example 65, 3,3-Bis-(4-hydroxy-3,5-dimethyl-phenyl)-1-(2-nitro-benzyl)-1,3-dihydro-indol-2-one], with not above 500 nM; and `Cc1cc(C2(c3cc(C)c(O)c(C)c3)C(=O)N(c3ccc(C(F)(F)F)cc3)c3ccccc32)cc(C)c1O` [Example 131, 3,3-Bis-(4-hydroxy-3,5-dimethyl-phenyl)-1-(4-trifluoromethyl-phenyl)-1,3-dihydro-indol-2-one], with not above 500 nM.
As for `COC(=O)c1ccc(CN2C(=O)C(c3cc(C)c(O)c(C)c3)(c3cc(C)c(O)c(C)c3)c3ccccc32)cc1` [Example 3, 4-[3,3-Bis-(4-hydroxy-3,5-dimethyl-phenyl)-2-oxo-2,3-dihydro-indol-1-ylmethyl]-benzoic acid methyl ester], the inhibition constant Ki is not above 500 nM.
In the case of `Cc1cc(C2(c3ccc(O)c(C)c3)C(=O)N(Cc3ccccc3)c3ccccc32)ccc1O` [Example 12, 1-Benzyl-3,3-bis-(4-hydroxy-3-methyl-phenyl)-1,3-dihydro-indol-2-one], the inhibition constant (Ki) was not above 500 nM.
With `Cc1cc(C2(c3cc(C)c(O)c(C)c3)C(=O)N(c3cccc(F)c3)c3ccccc32)cc(C)c1O` [Example 130, 1-(3-Fluoro-phenyl)-3,3-bis-(4-hydroxy-3,5-dimethyl-phenyl)-1,3-dihydro-indol-2-one] the figure was not above 500 nM; with `Cc1cc(C2(c3cc(C)c(O)c(C)c3)C(=O)N(CCC3CCCCC3)c3ccccc32)cc(C)c1O` [Example 110, 1-(2-Cyclohexyl-ethyl)-3,3-bis-(4-hydroxy-3,5-dimethyl-phenyl)-1,3-dihydro-indol-2-one], not above 500 nM.
With `Cc1cc(C2(c3cc(C)c(O)c(C)c3)C(=O)N(c3cccc(C(F)(F)F)c3)c3ccccc32)cc(C)c1O` [Example 127, 3,3-Bis-(4-hydroxy-3,5-dimethyl-phenyl)-1-(3-trifluoromethyl-phenyl)-1,3-dihydro-indol-2-one] the figure was not above 500 nM; with `Cc1cc(C2(c3cc(C)c(O)c(C)c3)C(=O)N(CC3CCCCC3)c3ccccc32)cc(C)c1O` [Example 6, 1-Cyclohexylmethyl-3,3-bis-(4-hydroxy-3,5-dimethyl-phenyl)-1,3-dihydro-indol-2-one], not above 500 nM.
Then `Cc1cc(C2(c3cc(C)c(O)c(C)c3)C(=O)N(Cc3cccc(C)c3F)c3ccccc32)cc(C)c1O` [Example 70, 1-(2-Fluoro-3-methyl-benzyl)-3,3-bis-(4-hydroxy-3,5-dimethyl-phenyl)-1,3-dihydro-indol-2-one], with not above 500 nM; and `COc1ccc(N2C(=O)C(c3cc(C)c(O)c(C)c3)(c3cc(C)c(O)c(C)c3)c3ccccc32)cc1OC` [Example 140, 1-(3,4-Dimethoxy-phenyl)-3,3-bis-(4-hydroxy-3,5-dimethyl-phenyl)-1,3-dihydro-indol-2-one], with not above 500 nM; and `COc1ccc(-c2nc(CN3C(=O)C(c4cc(C)c(O)c(C)c4)(c4cc(C)c(O)c(C)c4)c4cc(C)ccc43)cs2)cc1` [Example 95, 3,3-Bis-(4-hydroxy-3,5-dimethyl-phenyl)-1-[2-(4-methoxy-phenyl)-thiazol-4-ylmethyl]-5-methyl-1,3-dihydro-indol-2-one], with not above 1000 nM.
In the case of `Cc1ccccc1N1C(=O)C(c2cc(C)c(O)c(C)c2)(c2cc(C)c(O)c(C)c2)c2ccccc21` [Example 132, 3,3-Bis-(4-hydroxy-3,5-dimethyl-phenyl)-1-o-tolyl-1,3-dihydro-indo 1-2-one], the inhibition constant Ki is not above 500 nM.
Then `CC(C)=CCN1C(=O)C(c2cc(C)c(O)c(C)c2)(c2cc(C)c(O)c(C)c2)c2ccccc21` [Example 102, 3,3-Bis-(4-hydroxy-3,5-dimethyl-phenyl)-1-(3-methyl-but-2-enyl)-1,3-dihydro-indol-2-one], with not above 500 nM.
